Results: publication PMC11960675, “3-Deazaguanosine inhibits SARS-CoV-2 viral replication and reduces the risk of COVID-19 pneumonia in hamster” (iScience, 2025)
Values joined by “and” are separate entries in the source; they are usually repeats but may differ in a detail not shown here. Identical values can stand only once. Like-named read-outs stand apart in the source and are kept apart here.

Legend:
[1] = Cytotoxicity by WST-8 assay using uninfected Vero E6 cells; type: cell-based; details: African green monkey
SARS-CoV-2 [2] = test: microbe, parasite or virus in culture; type: cell-based; details: MOI 0.001, day 3 post-infection; for EC50: Severe acute respiratory syndrome coronavirus 2, Vero C1008, 72 h, footnote a: CPE assay, SARS-CoV-2-infected Vero E6 cells, read-out: EC50 (anti-SARS-CoV-2 activity, CPE assay); for Anti-SARS-CoV-2 activity by CPE assay (crystal violet staining): Vero E6 cells, 30 μM in Figure 2
SARS-CoV-2 [3] = test: Syrian hamster model of COVID-19, inhalation treatment by nebulizer; details: for Inflammatory area of lung sections: lung histopathology 5 dpi, INH 110 mg/kg/day qd
SARS-CoV-2 [4] = test: Syrian hamster model of COVID-19, intraperitoneal treatment; details: for Body weight change of infected hamsters / Inflammatory area of lung sections: IP, 2 at 110 mg/kg/day qd, Molnupiravir 220 mg/kg/day bid; for Inflammatory area of lung sections: lung histopathology 5 dpi
SARS-CoV-2 [5] = test: qRT-PCR of viral RNA using SARS-CoV-2-infected Vero E6 cells; type: cell-based; details: Severe acute respiratory syndrome coronavirus 2, Vero C1008, footnote b: qRT-PCR of viral RNA, MOI 0.001, non-linear curve fit, read-out: EC50 (95% CI) (anti-SARS-CoV-2 activity, qRT-PCR of viral RNA)
[6] = target: T1, vaccinia capping enzyme (VCE) (Vaccinia virus, UniProt P04298); type: biochemical; details: model RNA fragment, 37°C, 2 h, LC-MS
T1 construct: purchased CellScript C-SCCS2250

[7] = target: recombinant SARS-CoV-2 RdRp complex (Severe acute respiratory syndrome coronavirus 2, UniProt P0DTD1); type: biochemical; details: 10 μM, 34°C, 2 h
[8] = WST-8 assay, uninfected Vero E6 cells, read-out: CC50

Compound: Nc1nccc2c1ncn2[C@@H]1O[C@H](CO)[C@@H](O)[C@H]1O [Compound 1, 3-deazaadenosine]
- CC50 [1]: > 200 µM
- EC50 (SARS-CoV-2 [2]): > 30 µM

Compound: Nc1cc2c(ncn2[C@@H]2O[C@H](CO)[C@@H](O)[C@H]2O)c(=O)[nH]1 [Compound 2, 3-Deazaguanosine]
- Lower infectious viral titer in lungs (fold) (SARS-CoV-2 [3]; 5 dpi, inhalation, approximately 110 mg/kg/day qd): more than 10^2 fold
- Body weight loss associated with infection (SARS-CoV-2 [3]; inhalation, approximately 110 mg/kg/day qd): reduction in the body weight loss
- Inflammatory area of lung sections (SARS-CoV-2 [3]): 0.98 (±0.36) % and 0.98 ± 0.36%
- CC50 [1]: > 200 µM
- Lower infectious viral titer in lungs (fold) (SARS-CoV-2 [4]; 2 dpi, IP 110 mg/kg/day qd): > 10^5 fold
- Body weight change of infected hamsters (SARS-CoV-2 [4]): marginal reduction in body weight
- Inflammatory area of lung sections (SARS-CoV-2 [4]): 0.02 ± 0.02%
- Anti-SARS-CoV-2 activity by CPE assay (crystal violet staining) (SARS-CoV-2 [2]): inhibited viral replication
- EC50 (SARS-CoV-2 [5]): 1.14 µM

Compound: Nc1cc2c(ncn2[C@@H]2O[C@H](COP(=O)(O)OP(=O)(O)OP(=O)(O)O)[C@@H](O)[C@H]2O)c(=O)[nH]1 [Compound 2-TP, 6-Amino-1-(β-D-ribofuranosyl)-1H-imidazo[4,5-c]pyridin-4(5H)-one 5′-triphosphate]
- 5′-capped RNA formed by VCE in the presence of both GTP and the compound [6]: no 5′-capped RNA
- 5′-capped RNA formed by VCE with the compound in place of GTP [6]: small amounts of 5′-C^3GpppA-capped RNA (IIIb) and 5′-m7C^3GpppG-capped RNA (IVb)
- RNA synthesis by recombinant SARS-CoV-2 RdRp complex (fluorescence intensity) [7]: not inhibited

Compound: OC[C@H]1O[C@@H](n2cnc3c(O)nccc32)[C@H](O)[C@@H]1O [Compound 3, 3-deazainosine]
- CC50 [1]: > 200 µM
- EC50 (SARS-CoV-2 [2]): > 30 µM

Compound: Nc1[nH]c(=O)c2ncn([C@@H]3O[C@H](CO)[C@@H](O)[C@H]3O)c2c1F [Compound 4, 3-fluoro-3-Deazaguanosine]
- CC50 [1]: > 200 µM
- EC50 (SARS-CoV-2 [2]): > 30 µM
- Anti-SARS-CoV-2 activity by CPE assay (crystal violet staining) (SARS-CoV-2 [2]): loss of anti-viral activity

Compound: Nc1[nH]c(=O)c2ncn([C@@H]3O[C@H](CO)[C@@H](O)[C@H]3O)c2c1Cl [Compound 5, 3-chloro-3-Deazaguanosine]
- CC50 [1]: > 200 µM
- EC50 (SARS-CoV-2 [2]): > 30 µM
- Anti-SARS-CoV-2 activity by CPE assay (crystal violet staining) (SARS-CoV-2 [2]): loss of anti-viral activity

Compound: Nc1cc2c(ncn2[C@@H]2O[C@H](CO)[C@@H](O)[C@H]2O)c(N)n1 [Compound 6, 4,6-Diamino-1-β-D-ribofuranosyl-1H-imidazo[4,5-c]pyridine]
- CC50 [1]: > 200 µM
- EC50 (SARS-CoV-2 [2]): > 30 µM
- Anti-SARS-CoV-2 activity by CPE assay (crystal violet staining) (SARS-CoV-2 [2]): no inhibitory effects

Compound: Nc1cc2[nH]cnc2c(=O)[nH]1 [Compound 10, 6-Amino-1H-Imidazo[4,5-c]pyridin-4(5H)-one]
- CC50 [1, 8]: > 200 µM
- Anti-SARS-CoV-2 activity by CPE assay (crystal violet staining) (SARS-CoV-2 [2]): had anti-SARS-CoV-2 activity
- EC50 (SARS-CoV-2 [5]): 12.6 µM

Compound: Nc1cc2c(ncn2[C@H]2C[C@H](O)[C@@H](CO)O2)c(=O)[nH]1 [Compound 11, 6-Amino-1-(2-deoxy-β-D-ribofuranosyl)-1H-imidazo[4,5-c]pyridin-4(5H)-one]
- CC50 [1]: > 200 µM
- Anti-SARS-CoV-2 activity by CPE assay (crystal violet staining) (SARS-CoV-2 [2]): had anti-SARS-CoV-2 activity
- EC50 (SARS-CoV-2 [5]): 5.35 µM

Compound: CC(C)C(=O)OC[C@H]1O[C@@H](n2ccc(NO)nc2=O)[C@H](O)[C@@H]1O [Molnupiravir, reference compound]
- Inflammatory area of lung sections (SARS-CoV-2 [3]): 4.77 (±3.04) %
- Body weight change of infected hamsters (SARS-CoV-2 [4]): marginal reduction in body weight
- Inflammatory area of lung sections (SARS-CoV-2 [4]): 0.24 ± 0.16%

Compound: O=c1nc(NO)ccn1[C@@H]1O[C@H](CO)[C@@H](O)[C@H]1O [NHC, N^4-hydroxy cytidine, reference compound]
- CC50 [1]: > 200 µM
- EC50 (SARS-CoV-2 [5]): 0.27 µM

Compound: CCC(CC)COC(=O)[C@H](C)N[P@](=O)(OC[C@H]1O[C@@](C#N)(c2ccc3c(N)ncnn23)[C@H](O)[C@@H]1O)Oc1ccccc1 [Remdesivir, reference compound]
- CC50 [1, 8]: > 200 µM
- EC50 (SARS-CoV-2 [5]): 0.47 µM

Compound: Nc1nc2c(ncn2[C@H]2CC[C@@H](COP(=O)(O)OP(=O)(O)OP(=O)(O)O)O2)c(=O)[nH]1 [ddGTP, 2′,3′-dideoxy GTP, reference compound]
- RNA synthesis by recombinant SARS-CoV-2 RdRp complex (fluorescence intensity) [7]: reduced
